{"source": "patent US20050148632A1", "about": "“Therapeutic agent for intestinal diseases and visceral pain” (priority 2002, published 2005)", "test_system": "5-hydroxytryptophan (5-HTP)-induced defecation models of mice", "experiment": "Effect on 5-hydroxytryptophan (5-HTP)-induced defecation models of mice in vivo", "settings": "male SLC:ICR mice; 30 mg/kg orally, 30 minutes before 10 mg/kg 5-HTP s.c.; stool scored during 30 minutes", "experimental": "Effect on 5-hydroxytryptophan (5-HTP)-induced defecation models of mice in vivo:\nThe tests were conducted by using (R)-3-(2-(2-(4-methylpiperidine-1-yl)-ethyl)pyrrolidine-1-sulfonyl)phenol (synthesized according to a method described in WO 97/48681) known to be a selective 5-HT7 receptor antagonist as test compound 1 by a method of G. J. Sanger et al. (British Journal of Pharmacology, 130: 706-712, 2000).\nMale SLC:ICR mice (6 weeks) were placed in a series of 5 stainless steel cages for mice. After the acclimation for one hour or longer, 30 mg/kg of test compound 1 was orally administered to them (n=10). 30 minutes after, 10 mg/5mL/kg of 5-HTP (or 5 mL/kg of physiological saline in a group in which 5-HTP was not used) was subcutaneously administered to the mice . The stool excreted by each mouse during 30 minutes after the administration was observed (the results were scored as follows: 0: normal stool or no defecation, 1: diarrhea or soft stool). The inhibitory rate (%) of test compound 1 was calculated while the score obtained by subtracting the score of the 5-HTP-free group from the score of the 5-HTP group was determined to be 100%."}
{"smiles": "CC1CCN(CC[C@H]2CCCN2S(=O)(=O)c2cccc(O)c2)CC1", "note": "[test compound 1, (R)-3-(2-(2-(4-methylpiperidine-1-yl)-ethyl)pyrrolidine-1-sulfonyl)phenol]", "values": [{"measurement": "control rate (inhibitory rate of 5-HTP-induced diarrhea/soft stool score)", "value": 70, "unit": "%"}]}
